# Experimental data as given in US11246865B2 (priority 2017, dated 2022).
# Experiments:
# [1] = rat, in vivo
# [2] = Studies 2 and 3: antinociceptive ED50 in naive and tolerant animals, tail pinch test; format: in vivo, rat; conditions: for ED50: Rattus norvegicus, sc, 20 min
# [3] = Study 1: tolerance and cross-tolerance, tail pinch test (MPE); format: in vivo, rat; conditions: for antinociceptive effect / tolerance in DPI-125 tolerant animals: tolerant to 1.0 mg/kg DPI-125 BID
# [4] = rat, in vivo; remark: listed apart in the source
# in vivo = conditions: rat
smiles,measurement,setting,value
"CN1CC[C@]23c4c5ccc(O)c4O[C@H]2[C@@H](O)C=C[C@H]3[C@H]1C5 [Morphine, morphine, reference compound]",Therapeutic Ratio,[1],2.1
same,Fold Change of ED50,[2]; DPI-125 tolerant versus naive animals,7.8 fold
same,ED50,"[2]; DPI-125 tolerant animals, 20 min tail pinch",15.8 mg/kg
same,ED50,"[2]; morphine tolerant animals, 20 min tail pinch",11.3 mg/kg
same,ED50,"[2]; naive animals, 20 min tail pinch",2.04 mg/kg
same,Fold Change of ED50,[2]; morphine tolerant versus naive animals,5.5 fold
same,antinociceptive ED50,"[2]; naive animals, s.c., 20 min tail pinch",2.037 mg/kg
same,Mean MPE,"[3]; DPI-125 tolerant animals, challenge dose 1 (day 7), 30 min",2.63%
same,Mean MPE,"[3]; DPI-125 tolerant animals, challenge dose 1 (day 7), morphine 5.0 or DPI-125 1.0 mg/kg s.c., 20 min",1.76%
same,Mean MPE,"[3]; DPI-125 tolerant animals, challenge dose 2 (day 7.25), 20 min",0.00%
same,Mean MPE,"[3]; DPI-125 tolerant animals, challenge dose 2 (day 7.25), 30 min",1.75%
same,Mean MPE,"[3]; DPI-125 tolerant animals, challenge dose 3 (day 8), 20 min",3.51%
same,Mean MPE,"[3]; DPI-125 tolerant animals, challenge dose 3 (day 8), 30 min",0.00%
same,Mean MPE,"[3]; DPI-125 tolerant animals, challenge dose 4 (day 8.25), 20 min",0.88%
same,Mean MPE,"[3]; DPI-125 tolerant animals, challenge dose 4 (day 8.25), 30 min",0.00%
same,MPE on Day 1,"[3]; all animals, both dose points and both time points (20 and 30 min)",100%
same,time to maximal/complete tolerance,"[3]; b.i.d. s.c. dosing, morphine 5.0 mg/kg, DPI-125 1.0 mg/kg",5 days
same,Mean MPE,"[3]; morphine tolerant animals, challenge dose 1 (day 6), 30 min",4.4%
same,Mean MPE,"[3]; morphine tolerant animals, challenge dose 1 (day 6), morphine 5.0 or DPI-125 1.0 mg/kg s.c., 20 min",4.4%
same,Mean MPE,"[3]; morphine tolerant animals, challenge dose 2 (day 6.25), 20 min",0.9%
same,Mean MPE,"[3]; morphine tolerant animals, challenge dose 2 (day 6.25), 30 min",2.6%
same,Mean MPE,"[3]; morphine tolerant animals, challenge dose 3 (day 7), 20 min",0.0%
same,Mean MPE,"[3]; morphine tolerant animals, challenge dose 3 (day 7), 30 min",0.9%
same,Mean MPE,"[3]; morphine tolerant animals, challenge dose 4 (day 7.25), 20 min",2.6%
same,Mean MPE,"[3]; morphine tolerant animals, challenge dose 4 (day 7.25), 30 min",1.8%
same,Mean MPE,"[3]; tolerance development, dose 1 (day 1), s.c. BID (morphine 5.0, DPI-125 1.0 mg/kg), 20 minutes post-drug",100.0%
same,Mean MPE,"[3]; tolerance development, dose 1 (day 1), s.c. BID (morphine 5.0, DPI-125 1.0 mg/kg), 30 minutes post-drug",100.0%
same,Mean MPE,"[3]; tolerance development, dose 2 (day 1.25), s.c. BID, 20 minutes post-drug",100.0%
same,Mean MPE,"[3]; tolerance development, dose 2 (day 1.25), s.c. BID, 30 minutes post-drug",100.0%
same,Mean MPE,"[3]; tolerance development, dose 3 (day 2), s.c. BID, 20 minutes post-drug",78.9%
same,Mean MPE,"[3]; tolerance development, dose 3 (day 2), s.c. BID, 20 minutes post-drug, listed as morphine sulfate",78.9±7.9%
same,Mean MPE,"[3]; tolerance development, dose 3 (day 2), s.c. BID, 30 minutes post-drug",75.9%
same,Mean MPE,"[3]; tolerance development, dose 3 (day 2), s.c. BID, 30 minutes post-drug, listed as morphine sulfate",78.9±8.6%
same,Mean MPE,"[3]; tolerance development, dose 4 (day 2.25), s.c. BID, 20 minutes post-drug",56.6%
same,Mean MPE,"[3]; tolerance development, dose 4 (day 2.25), s.c. BID, 30 minutes post-drug",57.9%
same,Mean MPE,"[3]; tolerance development, dose 5 (day 3), s.c. BID, 20 minutes post-drug",33.8%
same,Mean MPE,"[3]; tolerance development, dose 5 (day 3), s.c. BID, 30 minutes post-drug",46.5%
same,Mean MPE,"[3]; tolerance development, dose 6 (day 3.25), s.c. BID, 20 minutes post-drug",32.9%
same,Mean MPE,"[3]; tolerance development, dose 6 (day 3.25), s.c. BID, 30 minutes post-drug",24.1%
same,Mean MPE,"[3]; tolerance development, dose 7 (day 4), s.c. BID, 20 minutes post-drug",23.7%
same,Mean MPE,"[3]; tolerance development, dose 7 (day 4), s.c. BID, 30 minutes post-drug",20.6%
same,Mean MPE,"[3]; tolerance development, dose 8 (day 4.25), s.c. BID, 20 minutes post-drug",7.0%
same,Mean MPE,"[3]; tolerance development, dose 8 (day 4.25), s.c. BID, 20 minutes post-drug, listed as morphine sulfate",7.0±2.8%
same,Mean MPE,"[3]; tolerance development, dose 8 (day 4.25), s.c. BID, 30 minutes post-drug",5.7%
same,Mean MPE,"[3]; tolerance development, dose 8 (day 4.25), s.c. BID, 30 minutes post-drug, listed as morphine sulfate",5.7±1.8%
same,Mean MPE,"[3]; tolerance development, dose 9 (day 5), s.c. BID, 20 minutes post-drug",3.1%
same,Mean MPE,"[3]; tolerance development, dose 9 (day 5), s.c. BID, 20 minutes post-drug, listed as morphine sulfate",3.1±1.2%
same,Mean MPE,"[3]; tolerance development, dose 9 (day 5), s.c. BID, 30 minutes post-drug",2.2%
same,Mean MPE,"[3]; tolerance development, dose 9 (day 5), s.c. BID, 30 minutes post-drug, listed as morphine sulfate",2.2±1.0%
same,Mean MPE,"[3]; tolerance development, dose 10 (day 5.25), s.c. BID, 20 minutes post-drug",5.3%
same,Mean MPE,"[3]; tolerance development, dose 10 (day 5.25), s.c. BID, 30 minutes post-drug",3.9%
same,antinociceptive effect / tolerance in DPI-125 tolerant animals,[3]; challenge morphine 5.0 or DPI-125 1.0 mg/kg,complete tolerance
same,antinociceptive effect / tolerance in DPI-125 tolerant animals,"[3]; challenge morphine 5.0 or DPI-125 1.0 mg/kg, listed as morphine sulfate",no antinociceptive effects
same,antinociceptive effect / tolerance in morphine tolerant animals,"[3]; tolerant to 5.0 mg/kg morphine BID, challenge morphine 5.0 or DPI-125 1.0 mg/kg",no antinociceptive effects
same,Analgesic ED50 Tail Pinch,[4],2.01 mg/kg
same,ED50,in vivo,4.23 mg/kg
